{"source": "paper PMC4961579", "about": "(Journal of neurochemistry, 2016)", "assay_in_all_cases": "two-electrode voltage clamp, micro-transplanted oocytes", "assay_type_in_all_cases": "cell-based", "key": {"[1]": {"system": "AMPA receptor (native synaptic, rat prefrontal cortex synaptosomes)", "details": "antagonist; 100 µM AMPA + 30 µM cyclothiazide; -100 mV, pH 7.4"}, "[2]": {"system": "AMPA receptor (native synaptic, human cortical synaptosomes)", "details": "antagonist; 100 µM AMPA + 100 µM cyclothiazide; -100 mV, pH 7.4"}, "[3]": {"system": "GABAA receptor (native synaptic, human cortical synaptosomes)", "details": "positive allosteric modulator; 30 µM GABA; legend says 212% potentiation"}, "[4]": {"system": "NMDA receptor (native synaptic, rat prefrontal cortex synaptosomes)", "details": "300 µM NMDA, 30 µM glycine, -100 mV, pH 7.4"}, "[5]": {"biological_target": "AMPA receptor with TARP gamma-8 (native, rat hippocampal synaptosomes) (Rattus norvegicus, UniProt P19490+P19491+Q8VHW5)", "sequence (Q8VHW5 whole entry)": "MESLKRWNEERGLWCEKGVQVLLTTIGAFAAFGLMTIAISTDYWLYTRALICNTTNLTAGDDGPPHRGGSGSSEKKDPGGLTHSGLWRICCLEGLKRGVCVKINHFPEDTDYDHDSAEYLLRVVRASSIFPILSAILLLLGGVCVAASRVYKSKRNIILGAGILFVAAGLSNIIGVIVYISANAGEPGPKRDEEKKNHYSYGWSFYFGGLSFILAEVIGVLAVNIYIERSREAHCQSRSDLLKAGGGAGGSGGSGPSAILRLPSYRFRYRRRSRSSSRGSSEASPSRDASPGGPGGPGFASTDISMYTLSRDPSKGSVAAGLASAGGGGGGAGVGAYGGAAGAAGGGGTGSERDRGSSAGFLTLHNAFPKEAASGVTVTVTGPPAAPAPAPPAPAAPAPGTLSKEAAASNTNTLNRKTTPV", "sequence (P19490 19-907)": "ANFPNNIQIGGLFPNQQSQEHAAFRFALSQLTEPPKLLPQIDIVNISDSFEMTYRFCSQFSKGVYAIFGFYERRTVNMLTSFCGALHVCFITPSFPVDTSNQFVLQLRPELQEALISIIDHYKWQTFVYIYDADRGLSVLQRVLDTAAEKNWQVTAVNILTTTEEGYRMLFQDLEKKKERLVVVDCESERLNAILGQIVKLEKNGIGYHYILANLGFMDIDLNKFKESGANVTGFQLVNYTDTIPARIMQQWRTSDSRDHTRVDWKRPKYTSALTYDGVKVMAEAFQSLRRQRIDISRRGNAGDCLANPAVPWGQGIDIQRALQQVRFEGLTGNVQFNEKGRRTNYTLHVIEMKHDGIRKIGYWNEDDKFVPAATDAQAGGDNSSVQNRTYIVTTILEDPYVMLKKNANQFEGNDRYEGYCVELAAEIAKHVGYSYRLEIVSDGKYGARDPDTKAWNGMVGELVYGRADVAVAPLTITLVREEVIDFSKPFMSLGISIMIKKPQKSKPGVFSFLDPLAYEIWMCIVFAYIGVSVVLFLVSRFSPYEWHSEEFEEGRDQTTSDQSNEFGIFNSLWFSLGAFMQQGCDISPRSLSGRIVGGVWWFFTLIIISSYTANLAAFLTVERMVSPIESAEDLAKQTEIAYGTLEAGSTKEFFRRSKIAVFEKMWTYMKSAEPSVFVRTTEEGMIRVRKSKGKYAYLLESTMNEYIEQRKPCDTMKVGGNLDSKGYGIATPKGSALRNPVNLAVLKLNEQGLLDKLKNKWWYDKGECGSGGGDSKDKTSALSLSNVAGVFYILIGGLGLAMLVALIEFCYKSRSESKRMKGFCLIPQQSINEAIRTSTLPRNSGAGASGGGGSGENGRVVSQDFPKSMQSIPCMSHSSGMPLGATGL", "sequence (P19491 22-883)": "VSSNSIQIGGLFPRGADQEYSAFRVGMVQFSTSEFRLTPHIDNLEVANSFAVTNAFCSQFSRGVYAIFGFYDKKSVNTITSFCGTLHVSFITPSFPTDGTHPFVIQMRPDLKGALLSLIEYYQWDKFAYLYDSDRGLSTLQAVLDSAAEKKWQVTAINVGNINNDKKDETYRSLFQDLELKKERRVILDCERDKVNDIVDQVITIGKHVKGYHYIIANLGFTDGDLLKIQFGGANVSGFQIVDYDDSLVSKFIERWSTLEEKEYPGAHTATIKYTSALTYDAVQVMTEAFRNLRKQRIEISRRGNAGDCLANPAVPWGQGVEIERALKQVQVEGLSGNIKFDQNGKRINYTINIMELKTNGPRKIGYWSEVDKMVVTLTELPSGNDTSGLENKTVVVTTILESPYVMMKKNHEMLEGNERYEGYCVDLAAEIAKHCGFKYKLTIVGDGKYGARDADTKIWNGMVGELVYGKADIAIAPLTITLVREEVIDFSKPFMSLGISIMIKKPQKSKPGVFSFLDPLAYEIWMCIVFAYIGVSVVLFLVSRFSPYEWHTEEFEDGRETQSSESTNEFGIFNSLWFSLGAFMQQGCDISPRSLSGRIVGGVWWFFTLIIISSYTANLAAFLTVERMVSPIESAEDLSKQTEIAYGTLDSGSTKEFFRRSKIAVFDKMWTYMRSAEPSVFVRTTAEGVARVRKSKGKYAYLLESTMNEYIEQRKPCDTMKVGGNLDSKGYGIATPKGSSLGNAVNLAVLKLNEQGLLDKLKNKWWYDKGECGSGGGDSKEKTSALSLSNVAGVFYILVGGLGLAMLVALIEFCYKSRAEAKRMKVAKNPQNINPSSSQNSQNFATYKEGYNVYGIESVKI", "details": "read-out: % inhibition at 10 μM"}}}
{"smiles": "N#Cc1ccccc1-c1cc(-c2ccccn2)cn(-c2ccccc2)c1=O", "note": "[perampanel]", "values": [{"measurement": "% inhibition at 30 μM", "setting": "[1]", "value": 97, "unit": "%"}, {"measurement": "% inhibition at 30 μM", "setting": "[2]", "value": 91, "unit": "%"}]}
{"smiles": "Cc1ccc(-c2nc3ccc(C)cn3c2CC(=O)N(C)C)cc1", "note": "[zolpidem]", "values": [{"measurement": "% of control at 1 μM", "setting": "[3]", "value": 212, "unit": "%"}]}
{"smiles": "C[C@]12N[C@H](Cc3ccccc31)c1ccccc12", "note": "[MK801]", "values": [{"measurement": "% inhibition at 1 μM", "setting": "[4]; non-competitive antagonist", "value": 100, "unit": "%"}]}
{"smiles": "CC(C(O)c1ccc(O)cc1)N1CCC(Cc2ccccc2)CC1", "note": "(stereo not drawn) [ifenprodil]", "values": [{"measurement": "% inhibition at 10 μM", "setting": "[4]; GluN2B-selective antagonist", "value": 75, "unit": "%"}]}
{"smiles": "C[C@@H](c1ccc2[nH]c(=O)sc2c1)c1ccn(-c2ccc(OCCO)cn2)n1", "note": "[LY3130481]", "values": [{"measurement": "inhibition at 10 µM", "setting": "[5]", "value": "55 ± 6.8", "unit": "%"}]}
